What was measured:
[1] = test system: trophic ulcers of lower limbs; test: Clinical trial in trophic ulcers of lower limbs, topical treatment; assay type: in vivo, human; settings: for number of patients with VERY GOOD result: 30 patients; for overall results compared with the combination (in words): same treatment time
Method: The used protocol is the following one:
1) Topical administrations of a combination of hyaluronic acid and carnitine (1:1 by weight), or of carnitine alone or of hyaluronic acid alone, previous humidification of the lesion with saline for a time of 10 minutes. In the first treatments, it is possible to use hyaluronic acid at a higher concentration than carnitine, to promote ulcer cleansing. In the following treatments, such concentrations of the two molecules have been used as to better make use of the role of carnitine in normalizing tissue trophism. Treatment usually started during hospitalization and was subsequently continued at the nalgesic therapy clinic.
Patients enrolled in this trial came from Medicine and Surgery Departments, where they unsuccessfully received various medical treatments (mesoglycan, Connectivine, mucopolysaccharides).
18 females and 12 males were treated, of age from 62 to 80 years, with trophic ulcers of various size and at different sites, anyhow on limbs or feet.
Results were scored as follows: VERY GOOD, when the ulcer healed completely; GOOD, when an at least 50% reduction of the lesion was attained; NULL, when no significant changes of the lesion occurred after 30 day-treatment.

[2] = test system: ornithinedecarboxylase; test: Increase of ornithinedecarboxylase activity induced by theleocidin in skin; assay type: in vivo, mice; settings: epidermis five hours after
Method: These skin alterations increase the ornithinedecarboxylase enzyme, and this increase is related to the severity of the induced cutaneous damage.
In these experiences, theleocidin is injected on mice back shaved skin at a dosage of 5 mcg/mouse dissolved in 0.2 cc of solution.
HA and AC either administered alone, or together or in the form of a complex according to the invention, are spread five minute's before theleocidin on the backs of the animals. Ornithinedecarboxylase is dosed on the homogenised epidermis of the animals five hours after the theleocidin injection, according to the method by O'Brien and Nakadate (O'Brien T. G., Cancer Res., 35, 1662, 1975—Nakadate T. Cancer Res., 42, 2841, 1982). Protein concentration of an epidermis extract is evaluated following the method described by Lowry (Lowry O. H., J. Biol. Chem., 193, 265, […]).

[3] = test system: barrier function of corneal epithelium; test: Clinical trial in dry eye syndrome: barrier function of corneal epithelium (fluorescein test, fluorophotometry); assay type: in vivo, human; settings: 27 dry eye patients, collyrium for 4 weeks; improvement after 2 weeks in lower cornea areas, 4 weeks in central ones
From the text: Dryness of the conjunctiva, isolated or in association with other ocular or extra-ocular disease, is recognizedly capable of inducing local damage on corneal epithelium which can, inter alia, lose its barrier function. […] According to the protocol, each patient received for 4 weeks a medication (hyaluronic acid) in the form of collyrium in one eye and a different treatment (hyaluronic acid/carnitine) in the other eye, so that each patient also acted as the control. Subjective evaluation and clinical examinations, associated with a fluorescein test, were carried out 2 weeks after the beginning of the treatment as well as at its end (4 weeks).

[4] = test system: Dithranol induced inflammation; test: Antiinflammatory activity on dithranol induced cutaneous inflammation; assay type: in vivo, Guinea pigs; settings: 48 hours
From the text: A specific cutaneous inflammatory reaction, caused by different phlogogenic factors both of exogenous and endogenous origin, including the formation of free radicals, lipoperoxides, prostaglandins and cytokines, is that induced by intradermal injection of dithranol, as described by Mustakallio (Mustakallio K., DERMATOVENER, 54, 125, 1979).
Dithranol is intradermally injected at the dose of 20 mcg on the back of shaved Guinea pigs.
On the opposite side of the back, before the injection of the same amount of dithranol, HA alone or acetyl-L-carnitine (AC) alone, or HA and AC together or the HA and AC complex, are spread.
A mixture of lanolin and ethylene glycol monostearate was used to spread these compounds.

[5] = test system: cartilage explants; test: Net loss of labelled PG and HA from cartilage explants (chase studies); assay type: cell-based, human
Method: (§1) Thirty-five subjects were included in the study. Exclusion criteria were septicaemia, connective tissue disordes, rheumatoid arthritis, crystal deposition diseases, known hereditary or congenital defects, immobilization for several weeks as well as treatment with corticosteroids and cytotoxic drugs.
(§2) Tissue specimens obtained from each donor were cut into pieces of 3-6 mg in Dulbecco's modified Eagle's medium (DMEM) supplemented with penicillin (5.000 i.u. ml^−1) The tissue was washed 3 times with this culture medium. Cartilage pieces were taken at random, weighed and distributed into the different wells of multiwell culture plates (typically between 30 and 60 mg tissue/well). Extra pieces were not cultured but stored at −20° C. in order to assess the initial proteoglycans (PG) and HA contents of the cartilage. Culture medium supplemented with 20% (v/v) foetal calf serum (culture medium A) was then added to each well and the culture plates were placed in a 90%: 10% (v/v) air: CO2 humidified incubator for 48 h at 37° C.
(§3) For each experiment the cartilage from one individual was used and tissue cultures were conducted in triplicate: that is, for the control culture as well as for each HA, Acetyl-carnitine (ALC) or HA+ALC, 3 cartilage explants were cultured separately. Reported values are the mean of the triplicate cultures.
After one day of culture in medium A, the cartilage pieces were aspirated free of medium, washed 3 times with 1 ml of DMEM, resuspended in culture medium B (1 ml 50 mg^−1 tissue) and cultured for 12 h. After pulse labelling, the cartilage pieces were washed with DMEM and resuspended in culture medium A. Medium alone or the appropriate molecules (HA, ALC or HA+ALC) dissolved in medium were added to each well (10 μl ml^−1) as stated above and a non-radioactive chase period was conducted for 24 h. […]
(§4) The Econo-Pak Q column (5 ml) was pre-equilibrated in buffer A at a flow rate of 2 ml min^−1. […] Fractions of 2 ml were collected and assayed for radioactivity. […]

[6] = test system: cartilage explants; test: PG and HA synthesis in cartilage explants (pulse studies, 3H-glucosamine); assay type: cell-based, human
Method: as §1, §2, §3
After 2 day of culture, the culture medium was aspirated and the explants were washed 3 times with 1 ml of DMEM. Explants were resuspended in 5% FCS culture medium (1 ml 50 mg^−1 tissue) supplemented with ^3H-glucosamine (50 μCi ml^−1) (culture medium B). To each well, a solution of HA, Acetyl-carnitine (ALC) or HA+ALC, was added ([…] in culture medium) to achieve the final concentration of 100 μg of HA and 100 μg of ALC. Control culture received medium alone. Culture wells were then incubated for 12 h. […]
as §4

[7] = 100 μg of HA and/or 100 μg of ALC, 12 h pulse

With `C[N+](C)(C)C[C@H](O)CC(=O)[O-]` [L-Carnitine, L-carnitine] the “number of patients with VERY GOOD result” value ([1]; 30 day-treatment) was “in no patients” and the “overall results compared with the combination (in words)” value [1] was “remarkably poorer”.
With hyaluronic acid [HA] the ornithinedecarboxylase activity ([2]; 10 mg spread five minutes before theleocidin 5 mcg/mouse) was 21 ± 2.8 nmol of CO2/60 min./mg protein, the ornithinedecarboxylase activity ([2]; 50 mg spread five minutes before theleocidin 5 mcg/mouse) was 31 ± 4.1 nmol of CO2/60 min./mg protein and the “symptoms and barrier function of corneal epithelium (in words)” value [3] was “did not provide significant advantages”. The “% inhibition of phlogistic area compared with controls” value ([4]; 10 mg spread on skin before dithranol 20 mcg intradermal) was 39 ± 1.6%, the “% inhibition of phlogistic area compared with controls” value ([4]; 50 mg spread on skin before dithranol 20 mcg intradermal) was 38 ± 2.9% and the “inhibition of the inflammation area induced by dithranol” value ([4]; dose not stated) was “about 30%”. For the same compound, the “net loss of labelled PGs and HA (in words)” value ([5]; 24 h chase, Table 5) was “reduced only the net loss of labelled HA”, the “% of radiolabelled molecules recovered in the media, [^3H] HA Loss/24 h” value ([5]; 24 h non-radioactive chase) was 28.0 ± 6.09% and the “% of radiolabelled molecules recovered in the media, [^3H] PG Loss/24 h” value ([5]; 24 h non-radioactive chase) was 20.1 ± 7.5%. The “patients with GOOD result (at least 50% reduction of the lesion)” value ([1]; 30 day-treatment) was 16%, the “number of patients with VERY GOOD result” value ([1]; 30 day-treatment) was “in no patients” and the “overall results compared with the combination (in words)” value [1] was “remarkably poorer”. The “HA synthesis d.p.m. [^3H] HA × 10^3/h/mg OH/proline” value [6, 7] was 4.5 ± 0.93 d.p.m. [^3H] HA × 10^3/h/mg OH/proline, the “PG synthesis d.p.m. [^3H] PG × 10^3/h/mg OH/proline” value [6, 7] was 39.2 ± 9.2 d.p.m. [^3H] PG × 10^3/h/mg OH/proline and the “PG and HA synthesis (in words)” value ([6]; text summary of Table 4) was “slight increase”.

Reference: US6585987B1, “Complexes of hyaluronic acid/carnitines and pharmaceutical and cosmetic compositions” (Continental Projects Limited, priority 1998, dated 2003)
